Assay results taken from ChEMBL document CHEMBL1201862, “PubChem BioAssay data set” (2004).
One block for each molecule: values may come before it. Active and inactive are the calls of the source.

How the values were obtained:
[1] = biological target: T1, Alkaline phosphatase, tissue-nonspecific isozyme (Homo sapiens, UniProt P05186); test: potency against alkaline phosphatase TNAP – biochemical, luminescent, dose response, SAR follow-up (AID 1056)
T1 sequence (P05186 whole entry): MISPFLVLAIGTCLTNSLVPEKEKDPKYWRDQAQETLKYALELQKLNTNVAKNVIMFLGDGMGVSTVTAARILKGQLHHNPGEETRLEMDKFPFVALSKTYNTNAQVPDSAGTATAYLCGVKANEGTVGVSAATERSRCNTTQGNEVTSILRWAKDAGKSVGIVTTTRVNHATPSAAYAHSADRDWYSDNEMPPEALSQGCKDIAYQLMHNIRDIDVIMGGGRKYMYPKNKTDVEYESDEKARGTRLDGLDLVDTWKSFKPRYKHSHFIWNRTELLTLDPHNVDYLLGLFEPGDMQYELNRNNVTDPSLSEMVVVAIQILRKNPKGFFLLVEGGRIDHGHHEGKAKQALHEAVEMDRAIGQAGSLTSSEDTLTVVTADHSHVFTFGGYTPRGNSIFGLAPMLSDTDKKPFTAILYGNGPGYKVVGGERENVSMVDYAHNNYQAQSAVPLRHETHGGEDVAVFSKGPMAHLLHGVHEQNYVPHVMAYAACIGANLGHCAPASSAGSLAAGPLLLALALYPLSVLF

[2] = biological target: Glyceraldehyde-3-phosphate dehydrogenase (Homo sapiens, UniProt P04406)
[3] = biological target: Induced myeloid leukemia cell differentiation protein Mcl-1 (Homo sapiens, UniProt Q07820); test: Mcl-1 Noxa peptide disruption concentration-response – biochemical, TR-FRET, dose response (AID 1417); assay type: functional
[4] = biological target: T2, Aminopeptidase N (Plasmodium falciparum FcB1/Columbia, UniProt O96935); test: malaria alanyl aminopeptidase activity blockers – biochemical, fluorogenic H-Leu-NHMec substrate, 1536-well (AID 1445); parameters: species or system Plasmodium falciparum 3D7, 3D7
T2 sequence (O96935 whole entry): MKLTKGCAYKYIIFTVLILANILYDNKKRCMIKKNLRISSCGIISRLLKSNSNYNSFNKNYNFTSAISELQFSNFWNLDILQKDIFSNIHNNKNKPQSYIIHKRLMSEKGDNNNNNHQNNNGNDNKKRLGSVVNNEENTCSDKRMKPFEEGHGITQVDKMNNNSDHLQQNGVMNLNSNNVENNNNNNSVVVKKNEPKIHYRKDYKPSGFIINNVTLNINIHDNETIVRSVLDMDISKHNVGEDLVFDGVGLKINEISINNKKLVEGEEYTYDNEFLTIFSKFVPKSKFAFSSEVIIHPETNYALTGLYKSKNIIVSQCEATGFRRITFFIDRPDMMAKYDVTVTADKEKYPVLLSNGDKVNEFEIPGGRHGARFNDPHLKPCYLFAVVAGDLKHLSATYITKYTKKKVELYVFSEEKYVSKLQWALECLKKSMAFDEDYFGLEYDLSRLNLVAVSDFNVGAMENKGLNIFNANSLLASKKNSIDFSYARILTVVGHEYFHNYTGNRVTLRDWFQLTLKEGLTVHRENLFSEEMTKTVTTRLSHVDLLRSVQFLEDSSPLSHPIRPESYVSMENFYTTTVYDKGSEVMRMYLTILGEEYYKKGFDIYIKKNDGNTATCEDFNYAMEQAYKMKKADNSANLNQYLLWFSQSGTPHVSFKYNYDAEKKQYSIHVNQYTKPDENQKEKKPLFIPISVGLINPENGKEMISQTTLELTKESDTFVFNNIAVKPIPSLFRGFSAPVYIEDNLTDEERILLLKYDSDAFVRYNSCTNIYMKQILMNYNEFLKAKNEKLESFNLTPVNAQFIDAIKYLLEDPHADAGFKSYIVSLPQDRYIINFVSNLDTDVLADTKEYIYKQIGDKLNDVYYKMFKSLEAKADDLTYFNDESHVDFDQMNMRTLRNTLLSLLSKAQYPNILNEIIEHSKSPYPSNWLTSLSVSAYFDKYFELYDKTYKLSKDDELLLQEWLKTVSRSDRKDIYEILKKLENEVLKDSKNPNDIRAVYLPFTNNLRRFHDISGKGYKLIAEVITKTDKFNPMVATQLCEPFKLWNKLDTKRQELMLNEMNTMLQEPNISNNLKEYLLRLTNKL

[5] = biological target: T3, Leucine aminopeptidase (Plasmodium falciparum 3D7, UniProt Q8IL11); test: P. falciparum M17LAP inhibitors, primary screen, biochemical, fluorogenic H-Leu-NHMec substrate, 1536-well (AID 1619); assay type: functional
T3 sequence (Q8IL11 whole entry): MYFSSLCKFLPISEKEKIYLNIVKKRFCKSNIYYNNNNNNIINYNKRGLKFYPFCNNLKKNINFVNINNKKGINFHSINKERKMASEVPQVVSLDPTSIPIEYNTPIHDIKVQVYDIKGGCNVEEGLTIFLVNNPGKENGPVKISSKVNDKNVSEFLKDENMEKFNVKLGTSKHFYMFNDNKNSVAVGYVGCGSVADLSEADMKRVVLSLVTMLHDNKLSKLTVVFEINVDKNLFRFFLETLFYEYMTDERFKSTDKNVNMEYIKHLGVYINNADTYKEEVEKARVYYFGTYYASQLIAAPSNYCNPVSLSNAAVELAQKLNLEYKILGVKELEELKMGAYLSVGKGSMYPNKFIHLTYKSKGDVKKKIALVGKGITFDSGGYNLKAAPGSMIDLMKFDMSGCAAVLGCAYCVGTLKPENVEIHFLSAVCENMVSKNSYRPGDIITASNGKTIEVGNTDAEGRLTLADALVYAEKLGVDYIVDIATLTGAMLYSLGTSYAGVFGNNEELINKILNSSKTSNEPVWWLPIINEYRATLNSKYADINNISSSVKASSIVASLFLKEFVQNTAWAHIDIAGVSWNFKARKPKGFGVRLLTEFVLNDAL

[6] = biological target: 72 kDa type IV collagenase (Homo sapiens, UniProt P08253); test: Dose Response validation of uHTS RPN11 inhibitor hits using a MMP-2 Fluorescence assay.; assay type: functional
[7] = biological target: Prothrombin (Bos taurus, UniProt P00735); test: thrombin protease inhibitors – biochemical, fluorescence polarization, uHTS hits, dose response (AID 602369); assay type: functional
[8] = viability of PTEN-deleted HCT116 cells – cell-based, HCT116 PTEN knockout, dose response (AID 1047); assay type: functional;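 also: HCT116 colon tumor cells with PTEN knocked out; cells exposed to compound for 60 hours before readout; potency for loss of cell viability measured by luminescence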
[9] = viability of HCT116 lacking mutant beta-catenin – cell-based, human colon tumor, dose response (AID 1045); assay type: functional;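 also: HCT116 colon tumor cells with beta catenin knocked out; cells exposed to compound for 60 hours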
[10] = biological target: 26S proteasome non-ATPase regulatory subunit 14 (Homo sapiens, UniProt O00487); test: inhibition of proteasome subunit RPN11 – biochemical, fluorescence polarization, uHTS hits, confirmation (AID 602368); assay type: functional
Chain of 26S proteasome non-ATPase regulatory subunit 14 (O00487 whole entry): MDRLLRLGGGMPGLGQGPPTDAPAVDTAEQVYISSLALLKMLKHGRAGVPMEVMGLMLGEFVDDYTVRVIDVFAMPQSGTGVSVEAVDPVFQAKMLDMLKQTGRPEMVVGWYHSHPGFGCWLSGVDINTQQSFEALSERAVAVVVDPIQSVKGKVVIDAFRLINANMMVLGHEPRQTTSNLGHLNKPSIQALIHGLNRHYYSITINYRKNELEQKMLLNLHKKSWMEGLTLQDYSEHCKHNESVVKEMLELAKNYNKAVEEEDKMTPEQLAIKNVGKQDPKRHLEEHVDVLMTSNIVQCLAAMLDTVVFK

Chain of Induced myeloid leukemia cell differentiation protein Mcl-1 (Q07820 whole entry): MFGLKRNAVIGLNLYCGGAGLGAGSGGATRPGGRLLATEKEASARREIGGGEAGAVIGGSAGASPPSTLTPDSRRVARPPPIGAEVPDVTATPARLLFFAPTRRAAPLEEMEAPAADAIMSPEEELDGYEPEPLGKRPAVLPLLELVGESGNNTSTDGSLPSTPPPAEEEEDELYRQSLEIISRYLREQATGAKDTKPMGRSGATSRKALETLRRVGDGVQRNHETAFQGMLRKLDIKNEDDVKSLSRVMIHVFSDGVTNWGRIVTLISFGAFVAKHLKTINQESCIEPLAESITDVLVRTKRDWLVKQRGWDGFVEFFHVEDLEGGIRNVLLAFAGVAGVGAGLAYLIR
Chain of Glyceraldehyde-3-phosphate dehydrogenase (P04406 whole entry): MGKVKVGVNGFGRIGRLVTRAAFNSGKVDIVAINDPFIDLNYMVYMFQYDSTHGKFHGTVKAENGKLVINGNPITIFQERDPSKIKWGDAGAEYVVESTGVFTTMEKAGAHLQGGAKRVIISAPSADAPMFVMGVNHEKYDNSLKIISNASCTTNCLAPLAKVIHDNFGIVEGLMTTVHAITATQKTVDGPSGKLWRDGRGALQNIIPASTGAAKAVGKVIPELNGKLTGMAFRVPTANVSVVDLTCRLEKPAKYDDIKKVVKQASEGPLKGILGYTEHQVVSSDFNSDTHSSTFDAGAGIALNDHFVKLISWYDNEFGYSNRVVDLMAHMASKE
Chain of 72 kDa type IV collagenase (P08253 whole entry): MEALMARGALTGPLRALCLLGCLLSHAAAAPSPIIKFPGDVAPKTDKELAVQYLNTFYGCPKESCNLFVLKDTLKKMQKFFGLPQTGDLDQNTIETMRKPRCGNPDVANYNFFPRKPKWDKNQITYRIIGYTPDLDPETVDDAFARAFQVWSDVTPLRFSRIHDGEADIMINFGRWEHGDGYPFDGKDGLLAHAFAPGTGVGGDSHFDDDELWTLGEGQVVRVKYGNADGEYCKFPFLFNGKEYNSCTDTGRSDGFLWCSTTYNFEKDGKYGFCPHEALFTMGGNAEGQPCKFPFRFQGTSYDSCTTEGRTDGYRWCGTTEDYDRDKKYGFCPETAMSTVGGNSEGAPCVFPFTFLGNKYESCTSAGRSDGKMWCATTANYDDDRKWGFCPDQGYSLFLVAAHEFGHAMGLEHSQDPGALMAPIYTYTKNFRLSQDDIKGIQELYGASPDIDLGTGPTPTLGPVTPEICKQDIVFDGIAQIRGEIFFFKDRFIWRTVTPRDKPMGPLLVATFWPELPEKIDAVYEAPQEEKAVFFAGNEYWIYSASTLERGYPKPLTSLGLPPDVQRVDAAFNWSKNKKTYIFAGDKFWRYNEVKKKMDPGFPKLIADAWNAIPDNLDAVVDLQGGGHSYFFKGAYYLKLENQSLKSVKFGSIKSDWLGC

IC50 [1]: > 100 µM (inactive)
IC50 [2]: > 100 µM (not active)
Structure (SMILES): COc1ccc(C)cc1S(=O)(=O)Nc1ccc2ccccc2c1

IC50 [3]: 3.67 µM (not active)
Structure (SMILES): Cc1ccc(C(=O)OCC(=O)Nc2ccc(N(C)C)cc2)cc1NC(=O)c1ccco1

IC50 [4]: 59.8 µM (active)
IC50 [5]: < 1 µM (active)
Structure (SMILES): CCc1nnc(NC(=O)CSc2nnc(-c3ccc(NS(=O)(=O)c4ccccc4)cc3)o2)s1

Structure (SMILES): COc1ccc2nc(N3C(=O)/C(=C/c4ccc(Cl)cc4)NC3=S)sc2c1
IC50 [6]: 33.5 µM (active)
IC50 [3]: 1.5 µM (active)
IC50 [7]: 53 µM (active)
EC50 [8]: 28.3 µM (active)
EC50 [9]: 30.4 µM (active)
IC50 [10]: 13.3 µM (active)
